Assay [1] in a line: Potential anxiolytic activity: mouse exploratory activity in a two-compartment light/dark box. It is filed as in vivo. Particulars: for minimal effective dose: Mus musculus, sc, read-out: minimum effective dose (MED). As for the experimental part: Compound A, the compound of GB 2236528A and a representative number of compounds disclosed in GB 2213816A which had high pA2 values in the 5-HT3 -antagonist test procedure given above were tested for potential anxiolytic activity by a test procedure measuring mouse exploratory activity in a two-compartment light/dark box based upon the procedure of B Costall et al, Neuropharmacology, 1987, 26, 195-200 and J. N. Crawley et al, Pharmac. Biochemo Behav., 1980, 13, 167-170. The test involves observing groups of mice placed in an open topped box, one third of which is painted black and illuminated under a dim red light and partitioned from the remainder of the box which is painted white and brightly illuminated. Access between the two sections is via an opening in the centre of the partition. The groups of mice are treated with vehicle or test compound and various behavioural parameters of the animals are measured including the number of exploratory rearings made by the mice in each section and the number of times the mice cross lines marked on the floor of each section. For each treatment group the mean numbers of line crossings and rears in each section of the box are calculated. Differences between drug-treated groups and vehicle-treated controls are compared using Student's unpaired t-test. […] Test compounds are considered to be active if they induce a similar set of changes and, in particular, if they produce a significant (p<0.05) increase in rearing activity in the light section of the box.

A further assay has as its target T1, 5-HT3 receptors (Rattus norvegicus, UniProt P35563).
T1 construct: from tissue; host or cells: isolated vagus nerve segments, Sprague-Dawley rat
T1 sequence (P35563 24-483): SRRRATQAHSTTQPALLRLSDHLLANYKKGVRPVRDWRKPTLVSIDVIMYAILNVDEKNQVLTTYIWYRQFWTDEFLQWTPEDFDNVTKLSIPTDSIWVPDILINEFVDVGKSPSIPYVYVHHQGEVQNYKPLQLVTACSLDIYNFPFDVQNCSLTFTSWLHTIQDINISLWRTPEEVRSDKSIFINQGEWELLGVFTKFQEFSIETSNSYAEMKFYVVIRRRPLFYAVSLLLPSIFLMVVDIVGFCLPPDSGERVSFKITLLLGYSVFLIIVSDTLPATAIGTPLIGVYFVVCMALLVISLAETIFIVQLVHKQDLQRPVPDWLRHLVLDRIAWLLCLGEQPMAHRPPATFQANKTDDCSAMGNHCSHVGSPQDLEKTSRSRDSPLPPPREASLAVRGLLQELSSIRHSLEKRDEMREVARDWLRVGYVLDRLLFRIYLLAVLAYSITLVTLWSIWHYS
Kind of assay: 5-HT3 antagonistic activity in the rat vagus (antagonism of 5-HT depolarization of isolated vagus nerve, Schild analysis). Further details: species or system rat (Sprague-Dawley). The following applies: for Kb: antagonism of 5-HT depolarization, rat vagus nerve in vitro, Schild analysis, read-out: pA2 (converted). As for the experimental part: Compound A, the compound of GB 2236528A and the compounds disclosed in GB 2213816A are tested for 5-HT3 antagonistic activity in the rat vagus by the following procedure:
The method is similar to that described by Ireland and Tyers, Br. J. Pharmac., 1987, 90, 229-238 and is dependent upon the ability of 5-HT to depolarize the vagus nerve in vitro.
Segments of the vagus nerve from Sprague-Dawley rats were placed in a perspex chamber and perfused with Krebs solution. Electrodes, positioned at either end of the nerve segment, were used to record the potential differences which ensued upon the addition of various concentrations of 5-HT to one end of the nerve segment.
Concentration-response curves to 5-HT were obtained in this manner prior to and following equilibration of the nerve segment with Krebs solution containing the test-substance.

Where [2] appears, read: significant (p<0.05) increase in rearing activity in the light section.

The structures appear in SMILES notation.

With `O=C(NC(=O)c1ccccc1OCC1CC1)N[C@H]1C[C@H]2CC[C@@H](C1)N2` [Compound A, (endo)-N-[[[8-azabicyclo[3.2.1]-octan-3-yl]amino]carbonyl]-2-(cyclopropylmethyloxy)benzamide], the minimal effective dose in assay [1] (setting [2]) was 0.001 mg/kg. Also, the “potency as potential anxiolytic compared with GB 2236528A and GB 2213816A compounds” value in assay [1] (mouse light/dark box, s.c., comparison in words) is given as “surprisingly more potent”. Also, the Kb on 5-HT3 receptors is 0.398 nM. In addition, on 5-HT3 receptors (rat vagus, comparison in words), the “potency as 5-HT3 antagonist compared with GB 2236528A and GB 2213816A compounds” value is given as “surprisingly more potent as 5-HT3 -antagonists”.
As to `CN1[C@@H]2CC[C@H]1C[C@@H](NC(=O)NC(=O)c1ccccc1OCC1CC1)C2` [Compound of GB 2236528A, (endo)-N-[[(8-methyl-8-azabicyclo[3.2.1]octan-3-yl)amino]carbonyl]-2-(cyclopropylmethoxy]benzamide], the minimal effective dose in assay [1] (setting [2]) turned out to be 0.01 mg/kg. Further, the Kb at 5-HT3 receptors was 1.26 nM.
Turning to `O=C(NC(=O)c1ccccc1OCC1CC1)NC1CC2CCC(C1)N2` (stereo not shown) [Example 1], the “minimum effective dose (MED)” value in assay [1] (s.c., significant (p<0.05) increase in rearing activity in the light section) came to 0.1 mg/kg.
